From article PMC7615656 (European journal of pharmacology, 2010)

How the values were obtained:
[1] = target: recombinant rat α1β3γ2F77I receptors (Rattus norvegicus, UniProt P18508+P62813, F115I); assay: Two-electrode voltage clamp of GABA-induced chloride currents in Xenopus oocytes; assay type: cell-based; conditions: α1β3γ2F77I; for efficacy (% GABA EC3): ns = not significant
[2] = target: recombinant rat α5β3γ2 receptors (Rattus norvegicus, UniProt P18508+P19969); assay: as above; assay type: cell-based; conditions: for efficacy (% GABA EC3): α5β3γ2, ns = not significant
[3] = target: recombinant rat α1β3γ2 receptors (Rattus norvegicus, UniProt P18508+P62813); assay: as above; assay type: cell-based; conditions: for efficacy (% GABA EC3): ns = not significant
[4] = system: GABAA receptors containing the γ2F77I mutation; assay: Modulation of GABA EC3 in receptors containing the γ2F77I mutation; assay type: cell-based, rat; conditions: 10 μM; some γ2F77I receptors
[5] = target: recombinant rat α4β3γ2 receptors (Rattus norvegicus, UniProt P18508+P28471); assay: Two-electrode voltage clamp of GABA-induced chloride currents in Xenopus oocytes; assay type: cell-based; conditions: for efficacy (% GABA EC3): α4β3γ2, ns = not significant
[6] = target: recombinant rat α3β3γ2F77I receptors (Rattus norvegicus, UniProt P18508+P20236, F115I); assay: as above; assay type: cell-based; conditions: α3β3γ2F77I, ns = not significant
[7] = target: recombinant rat α6β3γ2 receptors (Rattus norvegicus, UniProt P18508+P30191); assay: as above; assay type: cell-based; conditions: for efficacy (% GABA EC3): α6β3γ2, ns = not significant
[8] = target: recombinant rat α2β3γ2F77I receptors (Rattus norvegicus, UniProt P18508+P23576, F115I); assay: as above; assay type: cell-based; conditions: α2β3γ2F77I, ns = not significant
[9] = target: recombinant rat α3β3γ2 receptors (Rattus norvegicus, UniProt P18508+P20236); assay: as above; assay type: cell-based; conditions: for efficacy (% GABA EC3): α3β3γ2, ns = not significant
[10] = target: recombinant rat α2β3γ2 receptors (Rattus norvegicus, UniProt P18508+P23576); assay: as above; assay type: cell-based
[11] = system: GABAA receptors of mice containing the point mutation γ2F77I; conditions: receptor binding; ref Ogris et al., 2004; cited from earlier work
[12] = target: recombinant rat α5β3γ2F77I receptors (Rattus norvegicus, UniProt P18508+P19969, F115I); assay: Two-electrode voltage clamp of GABA-induced chloride currents in Xenopus oocytes; assay type: cell-based; conditions: α5β3γ2F77I, ns = not significant
α5 receptors = conditions: ref Atack et al., 2006; Quirk et al., 1996; cited from earlier work
[13] = target: recombinant rat α4β3γ2F77I receptors (Rattus norvegicus, UniProt P18508+P28471, F115I); assay: Two-electrode voltage clamp of GABA-induced chloride currents in Xenopus oocytes; assay type: cell-based; conditions: ns = not significant
[14] = target: recombinant rat α6β3γ2F77I receptors (Rattus norvegicus, UniProt P18508+P30191, F115I); assay: as above; assay type: cell-based; conditions: ns = not significant
α3β3γ2 receptors = conditions: 10 μM, ref Atack et al., 2006; cited from earlier work
α1β3 receptors = α1β3 receptors (Rattus norvegicus, UniProt P62813+P63079); assay: Zn2+ reduction of GABA-induced chloride flux; assay type: cell-based; conditions: 10 μM Zn2+, means ± SEM, n=4
[15] = 100 nM, α2β3γ2, ns = not significant
[16] = 1 μM, α2β3γ2, ns = not significant
[17] = 10 μM, α2β3γ2, ns = not significant
[18] = read-out: efficacy (% GABA EC3)

Chain of recombinant rat α6β3γ2F77I receptors (P30191 20-453): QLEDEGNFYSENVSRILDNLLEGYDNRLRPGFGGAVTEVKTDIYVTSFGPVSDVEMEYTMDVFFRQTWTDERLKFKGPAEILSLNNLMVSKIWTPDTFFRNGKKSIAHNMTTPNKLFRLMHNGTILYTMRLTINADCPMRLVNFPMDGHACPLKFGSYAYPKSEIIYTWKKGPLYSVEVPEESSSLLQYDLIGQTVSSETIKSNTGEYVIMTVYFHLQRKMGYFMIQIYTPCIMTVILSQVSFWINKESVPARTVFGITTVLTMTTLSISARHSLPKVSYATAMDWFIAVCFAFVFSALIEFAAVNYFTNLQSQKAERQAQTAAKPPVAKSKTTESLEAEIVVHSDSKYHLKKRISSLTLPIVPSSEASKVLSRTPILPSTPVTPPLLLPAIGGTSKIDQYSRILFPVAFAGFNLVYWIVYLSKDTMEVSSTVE
Chain of recombinant rat α6β3γ2F77I receptors (P63079 26-473 partner): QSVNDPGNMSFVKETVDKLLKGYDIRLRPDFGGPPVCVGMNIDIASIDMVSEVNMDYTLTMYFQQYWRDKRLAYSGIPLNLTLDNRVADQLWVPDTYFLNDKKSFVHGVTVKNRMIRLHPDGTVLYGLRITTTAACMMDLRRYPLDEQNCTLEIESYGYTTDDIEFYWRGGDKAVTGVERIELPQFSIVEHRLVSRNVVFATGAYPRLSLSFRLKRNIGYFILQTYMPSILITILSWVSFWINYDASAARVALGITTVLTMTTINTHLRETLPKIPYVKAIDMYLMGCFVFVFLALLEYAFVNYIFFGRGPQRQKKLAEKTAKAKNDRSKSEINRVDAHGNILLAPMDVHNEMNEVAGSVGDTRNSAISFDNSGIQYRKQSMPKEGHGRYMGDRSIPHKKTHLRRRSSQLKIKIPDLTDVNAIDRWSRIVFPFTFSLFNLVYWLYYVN
Chain of recombinant rat α6β3γ2F77I receptors (P18508 39-466 F115I): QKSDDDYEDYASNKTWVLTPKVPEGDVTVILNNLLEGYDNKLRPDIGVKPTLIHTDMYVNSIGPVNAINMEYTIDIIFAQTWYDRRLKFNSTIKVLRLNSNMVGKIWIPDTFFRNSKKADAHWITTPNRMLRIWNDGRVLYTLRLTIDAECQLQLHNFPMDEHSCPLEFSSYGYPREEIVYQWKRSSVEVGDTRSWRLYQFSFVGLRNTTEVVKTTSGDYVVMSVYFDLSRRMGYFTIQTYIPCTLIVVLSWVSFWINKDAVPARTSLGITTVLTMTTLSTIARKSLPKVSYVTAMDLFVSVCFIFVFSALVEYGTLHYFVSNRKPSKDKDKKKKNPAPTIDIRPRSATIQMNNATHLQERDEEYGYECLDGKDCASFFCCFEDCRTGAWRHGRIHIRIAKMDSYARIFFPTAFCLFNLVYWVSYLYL
Chain of recombinant rat α6β3γ2 receptors (P30191 20-453): as the sequence (P30191 20-453) above
Chain of recombinant rat α6β3γ2 receptors (P63079 26-473 partner): as the sequence (P63079 26-473 partner) above
Chain of recombinant rat α6β3γ2 receptors (P18508 39-466): as the sequence (P18508 39-466 F115I) above, with I77F counted along it
Chain of recombinant rat α4β3γ2 receptors (P28471 36-552): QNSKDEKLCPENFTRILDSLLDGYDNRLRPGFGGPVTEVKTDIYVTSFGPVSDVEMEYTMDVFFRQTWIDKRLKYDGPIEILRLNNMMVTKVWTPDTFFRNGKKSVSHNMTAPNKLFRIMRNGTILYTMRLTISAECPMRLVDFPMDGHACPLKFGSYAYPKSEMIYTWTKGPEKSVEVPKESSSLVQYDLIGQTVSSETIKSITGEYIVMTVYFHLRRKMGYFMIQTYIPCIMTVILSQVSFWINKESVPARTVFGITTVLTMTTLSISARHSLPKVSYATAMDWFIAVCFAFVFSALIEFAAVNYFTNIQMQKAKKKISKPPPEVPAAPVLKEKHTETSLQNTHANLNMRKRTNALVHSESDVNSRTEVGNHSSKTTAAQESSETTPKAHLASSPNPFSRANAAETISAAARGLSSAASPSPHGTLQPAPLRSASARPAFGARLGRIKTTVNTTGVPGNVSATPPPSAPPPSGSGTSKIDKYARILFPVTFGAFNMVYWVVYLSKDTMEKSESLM
Chain of recombinant rat α4β3γ2 receptors (P63079 26-473 partner): as the sequence (P63079 26-473 partner) above
Chain of recombinant rat α4β3γ2 receptors (P18508 39-466): as the sequence (P18508 39-466 F115I) above, with I77F counted along it
Chain of α1β3 receptors (P62813 28-455): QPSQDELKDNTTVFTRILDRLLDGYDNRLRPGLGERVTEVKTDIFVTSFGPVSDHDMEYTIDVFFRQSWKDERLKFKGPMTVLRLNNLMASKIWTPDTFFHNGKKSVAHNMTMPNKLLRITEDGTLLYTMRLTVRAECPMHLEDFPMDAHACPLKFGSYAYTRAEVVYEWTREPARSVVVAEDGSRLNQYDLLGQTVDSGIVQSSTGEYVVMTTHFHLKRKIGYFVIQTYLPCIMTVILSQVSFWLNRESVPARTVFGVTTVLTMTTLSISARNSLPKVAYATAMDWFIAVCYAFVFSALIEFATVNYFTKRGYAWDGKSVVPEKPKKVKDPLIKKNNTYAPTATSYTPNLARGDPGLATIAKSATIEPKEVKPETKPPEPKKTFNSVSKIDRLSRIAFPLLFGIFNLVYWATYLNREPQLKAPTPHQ
Chain of α1β3 receptors (P63079 26-473): as the sequence (P63079 26-473 partner) above

## Cc1nnc2ccc(-c3cccc(C(F)(F)F)c3)nn12 [CL 218872, 3-methyl-6-[3-trifluoromethyl-phenyl]-1,2,4-triazolo[4,3-b]pyridazine]
[1]; 100 nM
  efficacy (% GABA EC3): ns
[1]; 1 μM
  efficacy (% GABA EC3): ns
[1]; 10 μM
  efficacy (% GABA EC3): 132 ± 4 % GABA EC3
[2]; 100 nM
  efficacy (% GABA EC3): ns
[2]; 1 μM
  efficacy (% GABA EC3): 114 ± 1 % GABA EC3
[2]; 10 μM
  efficacy (% GABA EC3): 128 ± 2 % GABA EC3
[3]; 100 nM, α1β3γ2
  efficacy (% GABA EC3): 119 ± 7 % GABA EC3
[3]; 1 μM, α1β3γ2
  efficacy (% GABA EC3): 172 ± 10 % GABA EC3
[3]; 10 μM, α1β3γ2
  efficacy (% GABA EC3): 214 ± 13 % GABA EC3
[4]
  stimulation of GABA-induced chloride flux: 20–40%
[5]; 100 nM
  efficacy (% GABA EC3): ns
[5]; 1 μM
  efficacy (% GABA EC3): ns
[5]; 1 μM, listed as Cl218872
  efficacy (% GABA EC3): no effect
[5]; 10 μM
  efficacy (% GABA EC3): 199 ± 27 % GABA EC3
[6]; 100 nM
  efficacy (% GABA EC3): ns
[6]; 1 μM
  efficacy (% GABA EC3): ns
[6]; 10 μM
  efficacy (% GABA EC3): 125 ± 3 % GABA EC3
[7]; 100 nM
  efficacy (% GABA EC3): ns
[7]; 1 μM
  efficacy (% GABA EC3): ns
[7]; 10 μM
  efficacy (% GABA EC3): ns
[7]; 10 μM, listed as Cl218872
  efficacy (% GABA EC3): no significant stimulation
[8]; 100 nM
  efficacy (% GABA EC3): ns
[8]; 1 μM
  efficacy (% GABA EC3): ns
[8]; 10 μM
  efficacy (% GABA EC3): ns
[9]; 100 nM
  efficacy (% GABA EC3): 114 ± 2 % GABA EC3
[9]; 1 μM
  efficacy (% GABA EC3): 138 ± 7 % GABA EC3
[9]; 10 μM
  efficacy (% GABA EC3): 195 ± 8 % GABA EC3
[9]; α3β3γ2 versus α1β3γ2
  fold reduced potency for enhancing GABA EC3: approximately 3 fold
[10]; [15]
  efficacy (% GABA EC3): ns
[10]; [16]
  efficacy (% GABA EC3): ns
[10]; [17]
  efficacy (% GABA EC3): 162 ± 3 % GABA EC3
[10]; α2β3γ2 versus α3β3γ2
  further fold reduction of potency for enhancing GABA current: approximately 3 fold
[11]
  shift in affinity caused by γ2F77I: ~900 fold
[12]; 100 nM
  efficacy (% GABA EC3): ns
[12]; 1 μM
  efficacy (% GABA EC3): ns
[12]; 10 μM
  efficacy (% GABA EC3): 120 ± 3 % GABA EC3

## CCOC(=O)c1ncn2c1C1CCCN1C(=O)c1cc(OC)ccc1-2 [L-655,708, ethyl-7-methoxy-11,12,13,13a-tetrahydro-9-oxo-9H-imidazo[1,5-a]pyrrolo[2,1-c][1,4] benzodiazepine-1-carboxylate]
[1]; 10 nM
  efficacy (% GABA EC3): ns
[1]; 100 nM
  efficacy (% GABA EC3): ns
[1]; 1 μM
  efficacy (% GABA EC3): ns
[1]; 10 μM
  efficacy (% GABA EC3): ns
[2]; 10 nM
  efficacy (% GABA EC3): ns
[2]; [18]
  activity at 0.1 µM: 91 ± 1%
  activity at 1 µM: 84 ± 5%
  activity at 10 µM: 66 ± 7%
[3]; 10 nM, α1β3γ2
  efficacy (% GABA EC3): ns
[3]; 100 nM, α1β3γ2
  efficacy (% GABA EC3): ns
[3]; 1 μM, α1β3γ2
  efficacy (% GABA EC3): ns
[3]; 10 μM, α1β3γ2
  efficacy (% GABA EC3): 90 ± 4 % GABA EC3
[3]; [18]
  activity at 10 µM: 90%
[5]
  EC50: 168 ± 71 nM
[5]; 10 nM
  efficacy (% GABA EC3): ns
[5]; [18]
  activity at 0.1 µM: 143 ± 12%
  activity at 1 µM: 215 ± 4%
  activity at 10 µM: 224 ± 15%
[6]; 10 nM
  efficacy (% GABA EC3): ns
[6]; 100 nM
  efficacy (% GABA EC3): ns
[6]; 1 μM
  efficacy (% GABA EC3): ns
[6]; 10 μM
  efficacy (% GABA EC3): ns
α5 receptors
  selectivity for α5 receptors in receptor binding assays: 30–50 fold
[13]; 10 nM
  efficacy (% GABA EC3): ns
[13]; 100 nM
  efficacy (% GABA EC3): ns
[13]; 1 μM
  efficacy (% GABA EC3): ns
[13]; 10 μM
  efficacy (% GABA EC3): ns
[7]
  EC50: > 470 nM
[7]; [18]
  activity at 0.01 µM: 118 ± 4%
  activity at 0.1 µM: 131 ± 12%
  activity at 1 µM: 176 ± 25%
  activity at 10 µM: 199 ± 31%
[8]; 10 nM
  efficacy (% GABA EC3): ns
[8]; 100 nM
  efficacy (% GABA EC3): ns
[8]; 1 μM
  efficacy (% GABA EC3): ns
[8]; 10 μM
  efficacy (% GABA EC3): ns
[14]; 10 nM
  efficacy (% GABA EC3): ns
[14]; 100 nM
  efficacy (% GABA EC3): ns
[14]; 1 μM
  efficacy (% GABA EC3): ns
[14]; 10 μM
  efficacy (% GABA EC3): ns
α3β3γ2 receptors
  reduction of GABA-induced chloride flux to: 90%
[9]
  EC50: 10 ± 3 nM
[9]; [18]
  activity at 0.01 µM: 113 ± 1%
  activity at 0.1 µM: 126 ± 1%
  activity at 1 µM: 131 ± 4%
  activity at 10 µM: 126 ± 4%
[10]; 10 nM, α2β3γ2, ns = not significant
  efficacy (% GABA EC3): ns
[10]; [15]
  efficacy (% GABA EC3): ns
[10]; read-out: efficacy (% GABA EC3), 1 μM, α2β3γ2, ns = not significant
  activity at 1 µM: 93 ± 1%
[10]; read-out: efficacy (% GABA EC3), 10 μM, α2β3γ2, ns = not significant
  activity at 10 µM: 90%
[11]
  shift in affinity caused by γ2F77I: > 1000 fold
[12]; 10 nM
  efficacy (% GABA EC3): ns
[12]; 100 nM
  efficacy (% GABA EC3): ns
[12]; 1 μM
  efficacy (% GABA EC3): ns
[12]; 10 μM
  efficacy (% GABA EC3): ns

## [Zn+2] [Zn^2+]
[1]; 10 μM Zn2+, means ± SEM, n=4
  GABA-induced chloride flux reduced to: 75.4 ± 3%
α1β3 receptors
  GABA-induced chloride flux reduced to: 5.5 ± 1%
[3]; 10 μM Zn2+, α1β3γ2, means ± SEM, n=4
  GABA-induced chloride flux reduced to: 70.3 ± 3%

## CN1CCN(C(=O)OC2c3nccnc3C(=O)N2c2ccc(Cl)cn2)CC1 (stereo not shown) [Zopiclone, 4-methyl-1-piperazinecarboxylic acid-6-(5-chloro-2-pyridinyl)-6,7-dihydro-7-oxo-5H-pyrrolo[3,4-b]pyrazin-5-yl ester]
[1]; 100 nM
  efficacy (% GABA EC3): ns
[1]; 1 μM
  efficacy (% GABA EC3): ns
[1]; 10 μM
  efficacy (% GABA EC3): 125 ± 3 % GABA EC3
[2]
  EC50: 176 ± 1 nM
[2]; 100 nM
  efficacy (% GABA EC3): 191 ± 8 % GABA EC3
[2]; 1 μM
  efficacy (% GABA EC3): 313 ± 18 % GABA EC3
[2]; 10 μM
  efficacy (% GABA EC3): 345 ± 22 % GABA EC3
[3]
  EC50: 163 ± 19 nM
[3]; 100 nM, α1β3γ2
  efficacy (% GABA EC3): 211 ± 17 % GABA EC3
[3]; 1 μM, α1β3γ2
  efficacy (% GABA EC3): 347 ± 35 % GABA EC3
[3]; 10 μM, α1β3γ2
  efficacy (% GABA EC3): 383 ± 36 % GABA EC3
[4]
  stimulation of GABA-induced chloride flux: 20–40%
[5]; 1 μM
  efficacy (% GABA EC3): ns
[5]; 10 μM
  efficacy (% GABA EC3): ns
[5]; 10 μM, listed as zopiclone
  efficacy (% GABA EC3): did not significantly stimulate
[6]; 100 nM
  efficacy (% GABA EC3): ns
[6]; 1 μM
  efficacy (% GABA EC3): 107 ± 1 % GABA EC3
[6]; 10 μM
  efficacy (% GABA EC3): 119 ± 4 % GABA EC3
[7]; 1 μM
  efficacy (% GABA EC3): ns
[7]; 10 μM
  efficacy (% GABA EC3): ns
[7]; 10 μM, listed as zopiclone
  efficacy (% GABA EC3): did not significantly stimulate
[8]; 100 nM
  efficacy (% GABA EC3): ns
[8]; 1 μM
  efficacy (% GABA EC3): ns
[8]; 10 μM
  efficacy (% GABA EC3): 121 ± 2 % GABA EC3
[9]
  EC50: > 793 nM
[9]; 100 nM
  efficacy (% GABA EC3): 161 ± 10 % GABA EC3
[9]; 1 μM
  efficacy (% GABA EC3): 377 ± 24 % GABA EC3
[9]; 10 μM
  efficacy (% GABA EC3): 559 ± 30 % GABA EC3
[10]
  EC50: 400 ± 64 nM
[10]; [15]
  efficacy (% GABA EC3): 157 ± 9 % GABA EC3
[10]; [16]
  efficacy (% GABA EC3): 289 ± 16 % GABA EC3
[10]; [17]
  efficacy (% GABA EC3): 356 ± 22 % GABA EC3
[11]
  shift in affinity caused by γ2F77I: ~100 fold
[12]; 100 nM
  efficacy (% GABA EC3): ns
[12]; 1 μM
  efficacy (% GABA EC3): 114 ± 2 % GABA EC3
[12]; 10 μM
  efficacy (% GABA EC3): 144 ± 1 % GABA EC3
